Assay results published in PMC6063804 (EJNMMI Research, 2018).
Read-outs that look alike come from different tables or passages of the source.

Assays:
[1] = system: NMDA-R ion channel site; set-up: method as in PMID 26325093; conditions: rats, 3 mg ∙ kg^−1 IV, cited from earlier work
[2] = system: PCP binding site; conditions: cited from earlier work
[3] = system: NMDA-R; set-up: method as in PMID 26661185; conditions: humans; intravenous ketamine 0.3 mg · kg^−1; on average; cited from earlier work
[4] = set-up: method as in PMID 18176855; conditions: 1.1 mg ∙ kg^−1 S-ketamine over 75 min; cited from earlier work
[5] = Plasma ketamine concentration during PET; assay type: in vivo, human
From the text: The final arterial plasma input function was derived using both continuous and discrete arterial blood data. The input function was corrected for plasma to whole blood ratio, metabolites, and time delay. For each scan, two additional plasma input functions were generated to investigate the effect of within-subject and between-subject variability in plasma data. For the within-subject averaged input function, the mean of PET1 and PET2 [^18F]PK-209 parent fractions per subject were used at each of the eight sample timepoints for both scans. For the population-averaged input function, the mean parent fractions for all five subjects in the TRT and ketamine groups (i.e., 10 scans) were taken at each timepoint. The manual arterial blood samples were also used for assessment of the plasma ketamine concentration. The area under the ketamine concentration–time curve was estimated by means of the trapezoidal rule.
(§1) The (S+)-isomer of ketamine (0.5 mg · kg^−1) was dissolved in NaCl 50 mL and administered intravenously in a pseudo-steady state model with a sub-acute loading dose. First, ketamine was administered for 40 min at a rate of 0.006 mg · kg^−1 · min^−1 followed by a 130 min equilibrium phase at 0.002 mg · kg^−1 · min^−1. [^18F]PK-209 injection and start of PET were performed at 10 min into the equilibrium phase, following 0.26 mg · kg^−1 administration in the preceding 50 min.

[6] = Tolerability of ketamine infusion; assay type: in vivo, human
Description: as §1

[7] = target: ion channel of NMDA-R; set-up: method as in PMID 25648682; conditions: unlabelled compounds; rat forebrain membranes; read-out: concentrations that inhibit specific binding of [^3H]MK-801; cited from earlier work
[8] = system: ion channel site; set-up: method as in PMID 26325093; conditions: displacement binding studies; cited from earlier work

## CNC1(c2ccccc2Cl)CCCCC1=O (racemic) [(±)ketamine]
[1]; 1 min post-dosing
  inhibition of [^3H]MK-801 binding: 67%
[1]; 20 min post-dose
  inhibition of [^3H]MK-801 binding: 19%

## CSc1cccc(N(C)C(N)=Nc2cc(SCC[18F])ccc2Cl)c1 [[^18F]GE-179]
[2]; GE-179 0.6 mg ∙ kg^−1 at steady state, bolus-plus-infusion, anesthetized non-human primates
  block of the PET signal by cold GE-179: did not significantly block the PET signal
[2]; preclinical in vivo evaluation
  specificity of the PET signal: largely non-specific

## COc1cccc(N(C)C(=N)Nc2cc(SC)ccc2Cl)c1 [[^11C]GMOM, [11C]N-(2-chloro-5-thiomethylphenyl)-N′-(3-methoxy-phenyl)-N′-methylguanidine]
[3]
  reduction of radiotracer net influx rate (Ki) in whole brain gray matter: 66%

## CNC1(c2ccccc2Cl)CCCCC1=O (stereo not drawn) [ketamine]
[4]
  mean plasma concentration: 173 ng/mL
[5]; between 20 and 60 min after the start of PET, 0.5 mg ∙ kg^−1 infusion
  mean plasma ketamine concentration, plateau: ~ 100 ng ∙ mL^−1
[5]; end of the scan, 160 min since the start of infusion
  mean plasma ketamine concentration: ~ 70 ng ∙ mL^−1
[6]; S-ketamine 0.5 mg · kg^−1 intravenous infusion, healthy subjects
  tolerability: well tolerated by all subjects
[6]; at the start of PET scanning
  feelings of dissociation: reported by all subjects

## COc1cccc(N(C)C(=N)Nc2cc(SC)ccc2Cl)c1 [GMOM, reference compound]
[7]
  K i: 21.7 nM

## C[C@]12N[C@H](Cc3ccccc31)c1ccccc12 [MK-801]
[8]
  potency relative to (±)ketamine at the ion channel site: two orders of magnitude more potent
